Laboratory results taken from patent publication US20170157155A1, “METHOD OF TREATMENT OF NASOPHARYNGEAL CANCER” (Millennium Pharmaceuticals, Inc., priority 2012, published 2017).

Experiments:
[1] = system: relapsed or refractory mantle cell lymphoma; conditions: international multi-center Phase II study; cited from earlier work
nasopharyngeal cancer = test: Clinical response of nasopharyngeal cancer patients given the compound of formula (III-A) IV twice weekly; type: in vivo, human; conditions: for clinical response: IV injection days 1, 4, 8 and 11 of a 21-day cycle
Procedure: (1) Tissue Microarray (obtained from US Biomax, Inc.) of primary nasopharyngeal cancer (n=35) (2) Tissue Microarray of metastatic nasopharyngeal cancer (obtained from US Biomax, Inc.) (n=15) (3) Tissue Microarray of other histologies of head and neck cancers (obtained from US Biomax, Inc.) (n=68) (4) Archival primary tumor biopsy samples of patients with head and neck squamous cell cancers (n=14). All samples were obtained under the appropriate informed consent. The patients were administered the compound of formula (III-A) on a twice-weekly schedule (days 1, 4, 8 and 11 of a 21-day cycle) as an IV injection. Of the primary tumor samples in (4), there were three patients with nasopharyngeal cancer.

[2] = system: hematological and solid tumor xenograft models; conditions: range of hematological and solid tumor xenograft models; cited from earlier work
[3] = on exposure to aqueous solution or plasma; cited from earlier work

SMILES	activity in patients [1]	clinical response (nasopharyngeal cancer; Patient 1, metastatic nasopharyngeal cancer of a squamous cell type, tumor NFκB p65 H-score 300)	Responder/Non-responder (nasopharyngeal cancer; Patient 1, H-score 300)	clinical response (nasopharyngeal cancer; Patient 2, nasopharyngeal cancer, tumor NFκB p65 H-score 200)	Responder/Non-responder (nasopharyngeal cancer; Patient 2, H-score 200)	clinical response (nasopharyngeal cancer; Patient 3, nasopharyngeal cancer, tumor NFκB p65 H-score 160)	Responder/Non-responder (nasopharyngeal cancer; Patient 3, H-score 160)	anti-tumor activity [2]	hydrolysis to the active form MLN2238 [3]
CC(C)C[C@H](NC(=O)[C@H](Cc1ccccc1)NC(=O)c1cnccn1)B(O)O [bortezomib, N-2-pyrazinecarbonyl-L-phenylalanine-L-leucineboronic acid]	confirming the activity								
CC(C)C[C@H](NC(=O)CNC(=O)c1cc(Cl)ccc1Cl)B1OC(=O)C(CC(=O)O)(CC(=O)O)O1 [formula (III-A), 2,2′-{2-[(1R)-1-({[(2,5-dichlorobenzoyl)amino]acetyl}amino)-3-methylbutyl]-5-oxo-1,3,2-dioxaborolane-4,4-diyl}diacetic acid]		durable partial response	Responder	disease progressed within 4 cycles	Non-responder	progressive disease	Non-responder	demonstrated anti-tumor activity	rapidly hydrolyzes
